Assays:
[1] = target: T1, nitrilase bll6402 (Bradyrhizobium diazoefficiens, UniProt Q89GE3); test: Substrate specificity: specific/relative activity by ammonia release; format: biochemical, Bradyrhizobium japonicum USDA110; conditions: for Relative Activity: 25 mM substrate, pH 7.2, 30° C., phenylacetonitrile defined as 100
Experimental: The standard assays were carried out by mixing the substrate nitrile and purified nitrilase enzyme in potassium phosphate buffer (100 mM, pH 7.2). The reaction mixture was incubated at 30° C. Samples (100 μL) of the reaction mixture were withdrawn at several time intervals and quenched with 10 μl of 1 M HCl. The amount of ammonia produced in the reaction was measured using Bertholet assay as follows: A 100 μL aliquot of each of the following assay reagents was added subsequently: 0.02 M NaOCl, 0.33 M sodium phenoxide and 0.01% sodium nitroprusside solution. The mixture was then heated at 95° C. for 2 min, cooled rapidly in ice-water bath, and 200 μl of the mixture was then placed in a 96-well plate to measure the absorbance at 640 nm using SpectraMax M2 microplate reader (Molecular Devices). The amount of ammonia released during the hydrolysis was calculated by comparison with the standard curve obtained with standard ammonium chloride solution, and the activity was defined as the number of μmol of ammonia produced in 1 minute by 1 mg of enzyme (μmol·min^−1·mg^−1). To determine the kinetic parameters of the purified protein for mandelonitrile, activity assays were performed with different substrate concentrations, and Vmax and Km were calculated by best fitting the curve to experimental data according to Michaelis equation.
The specific activities of nitrilase bll6402 toward 24 different nitrites with structural diversity were measured by the quantification of the amount of ammonia released during the hydrolysis. A reaction mixture containing 20 or 40 μg of purified bll6402 enzyme, 25 mM substrate in potassium phosphate buffer (1 ml, 100 mM, pH 7.2) was incubated at 30° C. The conversion was determined by measuring the amount of ammonia produced in the reaction using Bertholet assay as described above.

[2] = target: T1, nitrilase bll6402; test: Selective hydrolysis of dinitriles to cyanocarboxylic acids; format: biochemical, Bradyrhizobium japonicum USDA110; conditions: selective hydrolysis of dinitrile
Description: Because of the synthetic importance of selective hydrolysis of dinitriles to […], nitrilase bll6402 was studied toward the hydrolysis of a series of dinitriles (e.g., scheme 6). [drawing 6]
The selectivity was not dependent on the chain length. This was different from the results obtained with nitrilases from Arabidopsis thaliana, acidovorax facilis 72W and cyanobacterium Synechocystis sp. strain PCC 6803, in which di-acids were obtained as the chain length increased.

[3] = target: T1, nitrilase bll6402; test: Regioselective hydrolysis of 1-cyanocycloalkaneacetonitriles; format: biochemical, Bradyrhizobium japonicum USDA110; conditions: 200 mg dinitrile, 10 mg nitrilase, pH 7.2, 30° C.
Experimental: The general procedure was followed: 1-Cyanocycloalkaneacetonitiles (200 mg) was treated with the nitrilase (10 mg) in potassium phosphate buffer (50 ml, 100 mM, pH=7.2). The reaction mixture was incubated at 30° C. and monitored by ^13C NMR. When dinitrile was consumed, the mixture was acidified with 1 N HCl solution to pH˜5, saturated with NaCl and extracted with ethyl acetate. The organic extract was dried over anhydrous sodium sulfate. Removal of solvent provided the desired product, which was further purified by preparative TLC using ethyl acetate-hexane (35/65, v/v) as eluting solvent.

[4] = target: T1, nitrilase bll6402; test: Enantioselective hydrolysis of β-hydroxy nitriles; format: biochemical, Bradyrhizobium japonicum USDA110
Experimental: β-Hydroxy nitrites were prepared by the cyanization of α-bromoketones with sodium cyanide followed by NaBH4 reduction. The obtained β-hydroxy nitrites were treated with purified nitrilase bll6402 in potassium phosphate buffer (100 mM, pH 7.0), and the reaction mixture was incubated overnight at 30° C. The mixture was then saturated with NaCl and extracted with ethyl acetate. The extract was dried over sodium sulfate, and evaporation of the solvent under reduced pressure afforded the crude products. The β-hydroxy carboxylic acids were separated from unreacted β-hydroxy nitrites by preparative thin-layer chromatography.
The ee values of both the product acids and the recovered nitrites were measured by chiral HPLC analysis, and their absolute configurations were determined by comparing the sign of optical rotation with the literature data. The enantiomeric ratios (E) were calculated using the equations proposed by Sih et al. (J. Am. Chem. Soc. 1982, 104, 7294-7299). The results are presented in Table 6 together with the data for the hydrolysis of mandelonitrile under the same conditions.

[5] = target: T1, nitrilase bll6402; test: Hydrolysis of aromatic α-hydroxy nitriles, conversion by HPLC; format: biochemical, Bradyrhizobium japonicum USDA110; conditions: 25 mM nitrile, 0.16 mg nitrilase in 1 mL, pH 7.2, overnight at 30° C.
Experimental: To further characterize the efficiency of nitrilase b116402 to catalyze the hydrolysis of mandelonitrile derivatives to the corresponding carboxylic acids, the hydrolysis of several aromatic α-hydroxy nitrites were carried out and the product carboxylic acids were characterized by HPLC analysis. An example procedure was as follows: aromatic α-hydroxynitriles (25 mM) were treated with 0.16 mg nitrilase bll6402 in 1 mL of potassium phosphate buffer (100 mM, pH 7.2). The reaction mixture was incubated overnight at 30° C. A sample was withdrawn and analyzed by HPLC (column: Agilent C8, eluent: MeOH:H2O=20:80, flow rate: 1 mL/min, detector: 254 nm) and the products were identified by comparison with the authentic standards.

[6] = system: arylacetonitrilases from Alcaligenes faecalis ATCC8750 and JM3; conditions: known arylacetonitrilases; cited from earlier work
[7] = target: T1, nitrilase bll6402; format: biochemical, Bradyrhizobium japonicum USDA110; conditions: pH 7.2
[8] = Effects of temperature, pH and organic solvents on nitrilase activity; format: biochemical; conditions: 30% (v/v) of hexane, tert-butyl methyl ether or toluene; 30° C., pH 7.1, 4 hours
Experimental: For the determination of temperature effect, a mixture of nitrilase (0.5 mg) with benzyl cyanide (50 mM) in 1.0 ml of potassium phosphate buffer (100 mM, pH 7.1) was incubated at 25° C., 30° C., 37° C. and 45° C., respectively. Aliquots (100 μl) were taken after 1, 2, 4, and 16 hrs intervals, and acidified with 10 μl of 1M HC1. The formed phenylacetic acid was extracted into 200 μl of tert-butyl methyl ether, dried over anhydrous sodium sulfate, and quantified by GC analysis after converting to methyl ester with diazomethane.
The pH effect was studied using the following buffer: sodium citrate buffer (pH 4.91 and 5.44), potassium phosphate buffer (pH 6.07, 6.52, 7.10, 7.58, 7.98 and 8.49) and sodium bicarbonate buffer (pH 8.98). A mixture of nitrilase (0.5 mg) with benzyl cyanide (50 mM) in 1.0 ml of the respective buffer (100 mM) was incubated at 30° C. […] The formed phenylacetic acid was extracted into 200 μl of tert-butyl methyl ether, dried over anhydrous sodium sulfate, and quantified by GC analysis after converting to methyl ester with diazomethane.
The organic solvent effects were evaluated with dimethyl sulfoxide (DMSO), tert-butyl methyl ether, hexane, toluene and butyl acetate. […] The formed phenylacetic acid was extracted into 1 ml of tert-butyl methyl ether, dried over anhydrous sodium sulfate, and quantified by GC analysis after converting to methyl ester with diazomethane.

[9] = pH 7.0, overnight at 30° C., isolated yield

T1 sequence (Q89GE3 whole entry, looked up): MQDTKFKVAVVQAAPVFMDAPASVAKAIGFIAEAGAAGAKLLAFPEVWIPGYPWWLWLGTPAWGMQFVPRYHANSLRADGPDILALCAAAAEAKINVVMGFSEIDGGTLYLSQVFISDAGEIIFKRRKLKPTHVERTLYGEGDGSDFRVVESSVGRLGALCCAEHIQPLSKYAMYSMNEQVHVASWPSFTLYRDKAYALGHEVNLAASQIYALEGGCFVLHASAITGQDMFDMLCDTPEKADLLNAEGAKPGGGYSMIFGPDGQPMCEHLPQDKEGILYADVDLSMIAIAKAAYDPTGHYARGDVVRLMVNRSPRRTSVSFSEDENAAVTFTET

| Compound | Relative Activity [1] | further results |
| --- | --- | --- |
| N#CCCCCC#N [1,4-Dicyanobutane] | 5 | Yield (%) of cyanocarboxylic acid [2]: 97% |
| N#CCCCCCC#N [1,5-Dicyanopentane] |  | Yield (%) of cyanocarboxylic acid [2]: 90% |
| N#CCCCCCCC#N [1,6-Dicyanohexane] |  | Yield (%) of cyanocarboxylic acid [2]: 88% |
| N#CCC1(C#N)CCCCC1 [1-cyancyclohexaneacetonitrile] |  | isolated yield of corresponding cyanocarboxylic acid [3]: 88% |
| N#CCC1(C#N)CCCCCC1 [1-cyanocycloheptaneacetonitrile] |  | isolated yield of corresponding cyanocarboxylic acid [3]: 54% |
| N#CCC1(C#N)CCCC1 [1-cyanocyclopentaneacetonitrile] |  | isolated yield of corresponding cyanocarboxylic acid [3]: 92% |
| CC(C#N)CCC#N (stereo not drawn) [2-Methylglutaronitrile] | 3 |  |
| N#CC(N)c1ccccc1 (stereo not drawn) [2-Phenylglycinonitrile] | 3 |  |
| N#CCCN [3-Aminopropionitrile] | 1 |  |
| N#CCCO [3-Hydroxypropionitrile] | 1 |  |
| N#CCc1c[nH]c2ccccc12 [3-Indolylacetonitrile] | 2 |  |
| CC(CC#N)c1ccccc1 (stereo not drawn) [3-phenylbutyronitrile] |  | hydrolysis by nitrilase bll6402 (result in words) ([4]; same conditions as β-hydroxy nitriles): not hydrolyzed |
| CC(=O)c1ccc(C#N)cc1 [4-Acetylbenzonitrile] | 2 |  |
| N#CCCCCl [4-Chlorobutyronitrile] | 6 |  |
| N#CCCCc1ccccc1 [4-Phenylbutyronitrile] | 4 |  |
| C=CCC#N [Allyl cyanide] | 2 |  |
| N#Cc1ccccc1 [Benzonitrile] | 1 |  |
| CC=CC#N [Crotononitrile] | 3 |  |
| N#C/C=C/C#N [Fumaronitrile] |  | Yield (%) of cyanocarboxylic acid [2]: 84% |

| Compound | Relative Activity [1] | further results |
| --- | --- | --- |
| N#CCCCC#N [Glutaronitrile] |  | Yield (%) of cyanocarboxylic acid [2]: 93% |
| CCCCCCC#N [Heptanenitrile] | 22 |  |
| CCCCCC#N [Hexanenitrile] | 16 |  |
| N#CCCc1ccccc1 [Hydrocinnamonitrile] | 13 |  |
| N#CC(O)c1ccccc1 (stereo not drawn) [Mandelonitrile] | 460 | activity relative to that of phenylacetonitrile ([1]; hydrolysis by nitrilase bll6402): 4.6 times; product acid (S)-2 ee (%) ([4]; pH 7.0, overnight at 30° C., chiral HPLC): 0%; product acid (S)-2 yield (%) [4, 9]: 98%; recovered nitrile (R)-1 yield (%) [4, 9]: 0%; Conversion(%) [5]: 98%; activity as % of that for phenylacetonitrile [6]: 12-15% |
| CSCC#N [Methylthioacetonitrile] | 1 | Yield (%) of product carboxylic acid [7]: 96% |
| N#CCc1ccccc1 [Phenylacetonitrile] | 100 |  |
| N#CCCCCCCCCC#N [Sebeconitrile] |  | Yield (%) of cyanocarboxylic acid [2]: 88% |
| N#CCCC#N [Succinonitrile] |  | Yield (%) of cyanocarboxylic acid [2]: 97% |
| CCCCC#N [Valeronitrile] | 6 |  |
| CCCC#N [n-Butyronitrile] | 3 | Yield (%) of product carboxylic acid [7]: 61% |
| CC(C)(C#N)C#N [α,α-Dimethylmalononitrile] |  | Yield (%) of cyanocarboxylic acid [2]: 93% |
| N#CC(O)c1cccc(O)c1 (stereo not drawn) [α-Hydroxy-α-(m-hydroxyphenyl)acetonitrile] |  | Conversion(%) [5]: 94% |
| N#CC(O)c1ccc(O)cc1 (stereo not drawn) [α-Hydroxy-α-(p-hydroxyphenyl)acetonitrile] |  | Conversion(%) [5]: 88% |
| CN(C)C(C#N)c1ccccc1 (stereo not drawn) [α-N,N-Dimethylaminophenylacetonitrile] | 1 |  |
| CCC(C#N)c1ccccc1 (stereo not drawn) [α-Phenylbutyronitrile] | 8 |  |
| C[Si](C)(C)OC(C#N)c1ccccc1 (stereo not drawn) [α-Trimethylsilyloxyphenylacetonitrile] | 165 | Conversion(%) [5]: 99% |
| CC(C#N)c1ccccc1 (stereo not drawn) [α-phenylpropionitrile] | 10 |  |
| nitrilase bll6402: nitrilase (mandelonitrile hydrolase) from Bradyrhizobium japonicum USDA110, amino acid SEQ ID NO: 2, expressed in E. coli |  | retained activity in biphasic systems [8]: more than 70% |

— patent publication US20070178575A1, “Identification Of A Nitrilase From B. Japonicum By Rational Genome Mining And Methods Of Use” (priority 2005, published 2007)
